#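 Results reflect a 48-hour exposure of cells in 96-well plates to compound at five concentrations. GI50 is the concentration that inhibits growth by half.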 Calls of active or inactive are those of the source. No stated cut-off is given here; in the data, active = GI50 up to about 1.1 µM and inactive = higher.
# Columns and labels:
# Experiment in all cases: NCI tumour cell line growth inhibition, 48 h
# K562 = tested on: K562
# OVCAR-5 = tested on: OVCAR-5
# HL-60 = tested on: HL-60
# SN12C = tested on: SN12C
# KM-20L2 = tested on: KM-20L2
# UO-31 = tested on: UO-31
# DMS-114 = tested on: DMS-114
# MOLT-4 = tested on: MOLT-4
# 786-0 = tested on: 786-0
# RPMI-8226 = tested on: RPMI-8226
# A498 = tested on: A498
# U-251 = tested on: U-251
# SW-620 = tested on: SW-620
# OVCAR-4 = tested on: OVCAR-4
# RXF 631 = tested on: RXF 631
# IGROV-1 = tested on: IGROV-1
# NCI-H460 = tested on: NCI-H460
# CAKI-1 = tested on: CAKI-1
# A549 = tested on: A549
# OVCAR-8 = tested on: OVCAR-8
# OVCAR-3 = tested on: OVCAR-3
# UACC-62 = tested on: UACC-62
# HT-29 = tested on: HT-29
# SNB-75 = tested on: SNB-75
# Malme-3M = tested on: Malme-3M
# HOP-62 = tested on: HOP-62
# HCT-15 = tested on: HCT-15
# KM12 = tested on: KM12
# SF-268 = tested on: SF-268
# EKVX = tested on: EKVX
# XF498 = tested on: XF498
# M19-MEL = tested on: M19-MEL
# SNB-78 = tested on: SNB-78
# CCRF-CEM = tested on: CCRF-CEM
# SK-MEL-2 = tested on: SK-MEL-2
# HOP-18 = tested on: HOP-18
# M14 = tested on: M14
# LXFL 529 = tested on: LXFL 529
# NCI-H23 = tested on: NCI-H23
# SNB-19 = tested on: SNB-19
# HCC 2998 = tested on: HCC 2998
# SF-539 = tested on: SF-539
# SK-MEL-5 = tested on: SK-MEL-5
# SF-295 = tested on: SF-295
# TK-10 = tested on: TK-10
# DMS-273 = tested on: DMS-273
# COLO 205 = tested on: COLO 205
# HCT-116 = tested on: HCT-116
# SK-OV-3 = tested on: SK-OV-3
# HOP-92 = tested on: HOP-92
# LOX IMVI = tested on: LOX IMVI
# UACC-257 = tested on: UACC-257
# ACHN = tested on: ACHN
# DLD-1 = tested on: DLD-1
# RXF 393 = tested on: RXF 393
# SK-MEL-28 = tested on: SK-MEL-28
smiles,measurement,setting,value
C=CCCC(=O)CC(=O)OCc1ccccc1,GI50,K562,> 100 µM (inactive)
same,GI50,OVCAR-5,> 100 µM (inactive)
same,GI50,HL-60,> 100 µM (inactive)
same,GI50,SN12C,> 100 µM (inactive)
same,GI50,KM-20L2,> 100 µM (inactive)
same,GI50,UO-31,> 100 µM (inactive)
same,GI50,DMS-114,> 100 µM (inactive)
same,GI50,MOLT-4,> 100 µM (inactive)
same,GI50,786-0,> 100 µM (inactive)
same,GI50,RPMI-8226,> 100 µM (inactive)
same,GI50,A498,> 100 µM (inactive)
same,GI50,U-251,> 100 µM (inactive)
same,GI50,SW-620,> 100 µM (inactive)
same,GI50,OVCAR-4,> 100 µM (inactive)
same,GI50,RXF 631,> 100 µM (inactive)
same,GI50,IGROV-1,> 100 µM (inactive)
same,GI50,NCI-H460,> 100 µM (inactive)
same,GI50,CAKI-1,> 100 µM (inactive)
same,GI50,A549,> 100 µM (inactive)
same,GI50,OVCAR-8,> 100 µM (inactive)
same,GI50,OVCAR-3,> 100 µM (inactive)
same,GI50,UACC-62,> 100 µM (inactive)
same,GI50,HT-29,> 100 µM (inactive)
same,GI50,SNB-75,99.3 µM (inactive)
same,GI50,Malme-3M,> 100 µM (inactive)
same,GI50,HOP-62,> 100 µM (inactive)
same,GI50,HCT-15,> 100 µM
same,GI50,KM12,> 100 µM (inactive)
same,GI50,SF-268,> 100 µM (inactive)
same,GI50,EKVX,> 100 µM (inactive)
same,GI50,XF498,> 100 µM (inactive)
same,GI50,M19-MEL,> 100 µM (inactive)
same,GI50,SNB-78,> 100 µM (inactive)
same,GI50,CCRF-CEM,> 100 µM (inactive)
same,GI50,SK-MEL-2,> 100 µM (inactive)
same,GI50,HOP-18,> 100 µM (inactive)
same,GI50,M14,> 100 µM (inactive)
same,GI50,LXFL 529,> 100 µM (inactive)
same,GI50,NCI-H23,8.47 µM (inactive)
same,GI50,SNB-19,> 100 µM (inactive)
same,GI50,HCC 2998,> 100 µM (inactive)
same,GI50,SF-539,> 100 µM (inactive)
same,GI50,SK-MEL-5,> 100 µM (inactive)
same,GI50,SF-295,> 100 µM (inactive)
same,GI50,TK-10,> 100 µM (inactive)
same,GI50,DMS-273,> 100 µM (inactive)
same,GI50,COLO 205,> 100 µM (inactive)
same,GI50,HCT-116,> 100 µM (inactive)
same,GI50,SK-OV-3,> 100 µM (inactive)
same,GI50,HOP-92,> 100 µM (inactive)
same,GI50,LOX IMVI,> 100 µM (inactive)
same,GI50,UACC-257,> 100 µM (inactive)
same,GI50,ACHN,> 100 µM (inactive)
same,GI50,DLD-1,> 100 µM (inactive)
CCOC(=O)C1(C)CCCCC(=O)N1 (centres undefined),GI50,K562,> 100 µM (inactive)
same,GI50,HL-60,> 100 µM (inactive)
same,GI50,SN12C,> 100 µM (inactive)
same,GI50,KM-20L2,> 100 µM (inactive)
same,GI50,RXF 393,> 100 µM (inactive)
same,GI50,UO-31,> 100 µM (inactive)
same,GI50,DMS-114,> 100 µM (inactive)
same,GI50,786-0,> 100 µM (inactive)
same,GI50,U-251,> 100 µM (inactive)
same,GI50,SW-620,> 100 µM (inactive)
same,GI50,OVCAR-4,> 100 µM (inactive)
same,GI50,RXF 631,> 100 µM (inactive)
same,GI50,IGROV-1,> 100 µM (inactive)
same,GI50,NCI-H460,> 100 µM (inactive)
same,GI50,CAKI-1,> 100 µM (inactive)
same,GI50,A549,> 100 µM (inactive)
same,GI50,OVCAR-8,> 100 µM (inactive)
same,GI50,OVCAR-3,> 100 µM (inactive)
same,GI50,UACC-62,> 100 µM (inactive)
same,GI50,HT-29,> 100 µM (inactive)
same,GI50,SK-MEL-28,> 100 µM (inactive)
same,GI50,SNB-75,> 100 µM (inactive)
same,GI50,Malme-3M,> 100 µM (inactive)
same,GI50,HOP-62,> 100 µM (inactive)
same,GI50,HCT-15,> 100 µM
same,GI50,SF-268,> 100 µM (inactive)
same,GI50,EKVX,> 100 µM (inactive)
same,GI50,XF498,> 100 µM (inactive)
same,GI50,M19-MEL,> 100 µM (inactive)
same,GI50,SNB-78,> 100 µM (inactive)
same,GI50,HOP-18,64.3 µM (inactive)
same,GI50,M14,> 100 µM (inactive)
same,GI50,LXFL 529,> 100 µM (inactive)
same,GI50,NCI-H23,> 100 µM (inactive)
same,GI50,SNB-19,> 100 µM (inactive)
same,GI50,HCC 2998,> 100 µM (inactive)
same,GI50,SF-295,> 100 µM (inactive)
same,GI50,TK-10,> 100 µM (inactive)
same,GI50,DMS-273,> 100 µM (inactive)
same,GI50,COLO 205,> 100 µM (inactive)
same,GI50,SK-OV-3,> 100 µM (inactive)
same,GI50,HOP-92,> 100 µM (inactive)
same,GI50,LOX IMVI,> 100 µM (inactive)
same,GI50,ACHN,> 100 µM (inactive)
same,GI50,DLD-1,> 100 µM (inactive)
